We go through one compound from patent publication US10155007B2, “Synthesis method for improved tenofovir disoproxil fumarate using ion-exchange resin and method for preparing oral dissolving film form using the same” (Firson, priority 2014, dated 2018).

The data set is described as follows: Solubility of tenofovir in the aqueous neutralization solution. Type of data set: physicochemical. The protocol:
The present invention also relates to a method of adding a defined proportion of calcium hydride to magnesium butoxide that is a catalyst commonly used in the synthesis of DEPMPA from HPA to shorten the reaction time from 18 hours to 6 hours or less and cause the production of toluene calcium sulfonate to reduce highly deliquescent substances, and using an ion-exchange resin (Dowex 50W, sulfonic acid cation exchange resin) after neutralization with a counter-alkali solution in the dealcoholizing hydrolysis of the ester compound into tenofovir, thereby to reach a precise isoelectric point (pH 3.2) and further increase the synthesis yield of tenofovir. Generally, when the pH value is 2.5 to 3.5 in the neutralization, tenofovir (H2O, one-molecule crystal water) is dissolved in the aqueous solution at about 7 percent. When the neutralization is perfectly performed with the ion-exchange resin, the solubility of tenofovir can be reduced to 4 percent or below.

A value given as a limit tells only on which side of the number the result lay.

As for `C[C@H](Cn1cnc2c(N)ncnc21)OCP(=O)(O)O` [tenofovir, (R)-9-[2-(phosphonomethoxy)propyl]adenine], the solubility of tenofovir (neutralization perfectly performed with the ion-exchange resin) is not above 4%. In addition, where the note is “pH 2.5 to 3.5 in the neutralization, tenofovir H2O, one-molecule crystal water”, the “tenofovir dissolved in the aqueous solution” value is given as “about 7%”.
